PubChem BioAssay (NCI)
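Cultured in 96-well plates, cells were exposed to test compound for 48 hours across five concentrations. Definition used: TGI = concentration required for complete inhibition of growth.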

Key:
Experiment in all cases: DTP human tumour cell line panel, 48 h
786-0 renal = test system: 786-0 renal
A498 renal = test system: A498 renal
A549 NSCLC = test system: A549 NSCLC
ACHN renal = test system: ACHN renal
BT-549 breast = test system: BT-549 breast
CAKI-1 renal = test system: CAKI-1 renal
CCRF-CEM leukemia = test system: CCRF-CEM leukemia
COLO 205 colon = test system: COLO 205 colon
DU-145 prostate = test system: DU-145 prostate
EKVX NSCLC = test system: EKVX NSCLC
HCC-2998 colon = test system: HCC-2998 colon
HCT-116 colon = test system: HCT-116 colon
HCT-15 colon = test system: HCT-15 colon
HL-60(TB) leukemia = test system: HL-60(TB) leukemia
HOP-62 NSCLC = test system: HOP-62 NSCLC
HOP-92 NSCLC = test system: HOP-92 NSCLC
HS 578T breast = test system: HS 578T breast
HT29 colon = test system: HT29 colon
IGROV1 ovarian = test system: IGROV1 ovarian
K-562 leukemia = test system: K-562 leukemia
KM12 colon = test system: KM12 colon
LOX IMVI melanoma = test system: LOX IMVI melanoma
M14 melanoma = test system: M14 melanoma
MALME-3M melanoma = test system: MALME-3M melanoma
MCF7 breast = test system: MCF7 breast
MDA-MB-231 breast = test system: MDA-MB-231 breast
MDA-MB-435 = test system: MDA-MB-435
MDA-N = test system: MDA-N
MOLT-4 leukemia = test system: MOLT-4 leukemia
NCI-H23 lung = test system: NCI-H23 lung
NCI-H460 lung = test system: NCI-H460 lung
NCI-H522 lung = test system: NCI-H522 lung
NCI/ADR-RES ovarian = test system: NCI/ADR-RES ovarian
OVCAR-3 ovarian = test system: OVCAR-3 ovarian
OVCAR-4 ovarian = test system: OVCAR-4 ovarian
OVCAR-5 ovarian = test system: OVCAR-5 ovarian
OVCAR-8 ovarian = test system: OVCAR-8 ovarian
PC-3 prostate = test system: PC-3 prostate
RPMI-8226 leukemia = test system: RPMI-8226 leukemia
RXF 393 renal = test system: RXF 393 renal
SF-268 CNS = test system: SF-268 CNS
SF-295 CNS = test system: SF-295 CNS
SF-539 CNS = test system: SF-539 CNS
SK-MEL-2 melanoma = test system: SK-MEL-2 melanoma
SK-MEL-28 melanoma = test system: SK-MEL-28 melanoma
SK-MEL-5 melanoma = test system: SK-MEL-5 melanoma
SK-OV-3 ovarian = test system: SK-OV-3 ovarian
SN12C renal = test system: SN12C renal
SNB-19 CNS = test system: SNB-19 CNS
SR leukemia = test system: SR leukemia
SW-620 colon = test system: SW-620 colon
T-47D breast = test system: T-47D breast
TK-10 renal = test system: TK-10 renal
U251 CNS = test system: U251 CNS
UACC-257 melanoma = test system: UACC-257 melanoma
UACC-62 melanoma = test system: UACC-62 melanoma
UO-31 renal = test system: UO-31 renal
NCI-H226 lung = test system: NCI-H226 lung

CCCCOC(=O)Nc1ccc(S(=O)(=O)Nc2ccccc2Cl)cc1
TGI (786-0 renal): 41.8 µM
TGI (A498 renal): 27.8 µM
TGI (A549 NSCLC): > 100 µM
TGI (ACHN renal): 65.8 µM
TGI (BT-549 breast): 39.2 µM
TGI (CAKI-1 renal): 44.5 µM
TGI (CCRF-CEM leukemia): 57.3 µM
TGI (COLO 205 colon): 45.2 µM
TGI (DU-145 prostate): > 100 µM
TGI (EKVX NSCLC): 57 µM
TGI (HCC-2998 colon): 27.5 µM
TGI (HCT-116 colon): 41.6 µM
TGI (HCT-15 colon): 44.9 µM
TGI (HL-60(TB) leukemia): 59.5 µM
TGI (HOP-62 NSCLC): 37.7 µM
TGI (HOP-92 NSCLC): 30 µM
TGI (HS 578T breast): 53.8 µM
TGI (HT29 colon): 35.9 µM
TGI (IGROV1 ovarian): 49 µM
TGI (K-562 leukemia): 43.1 µM
TGI (KM12 colon): 62.9 µM
TGI (LOX IMVI melanoma): 34.7 µM
TGI (M14 melanoma): 37.7 µM
TGI (MALME-3M melanoma): 52.5 µM
TGI (MCF7 breast): 42.1 µM
TGI (MDA-MB-231 breast): 42 µM
TGI (MDA-MB-435): 36 µM
TGI (MDA-N): 33.8 µM
TGI (MOLT-4 leukemia): 51.5 µM
TGI (NCI-H23 lung): 77.7 µM
TGI (NCI-H460 lung): 40.1 µM
TGI (NCI-H522 lung): 49.3 µM
TGI (NCI/ADR-RES ovarian): 43.4 µM
TGI (OVCAR-3 ovarian): 44.3 µM
TGI (OVCAR-4 ovarian): 41.2 µM
TGI (OVCAR-5 ovarian): 55.4 µM
TGI (OVCAR-8 ovarian): 40 µM
TGI (PC-3 prostate): 58.4 µM
TGI (RPMI-8226 leukemia): 36.8 µM
TGI (RXF 393 renal): 55.9 µM
TGI (SF-268 CNS): 36.5 µM
TGI (SF-295 CNS): 32.9 µM
TGI (SF-539 CNS): 32.7 µM
TGI (SK-MEL-2 melanoma): 38.8 µM
TGI (SK-MEL-28 melanoma): 36.2 µM
TGI (SK-MEL-5 melanoma): 24.3 µM
TGI (SK-OV-3 ovarian): 33.8 µM
TGI (SN12C renal): 48.8 µM
TGI (SNB-19 CNS): 49.8 µM
TGI (SR leukemia): 26.8 µM
TGI (SW-620 colon): 31.3 µM
TGI (T-47D breast): 87.1 µM
TGI (TK-10 renal): 46.6 µM
TGI (U251 CNS): 36 µM
TGI (UACC-257 melanoma): 98.4 µM
TGI (UACC-62 melanoma): 32.7 µM
TGI (UO-31 renal): 80 µM

C=CC1(CC/C(=C\[N+](=O)[O-])c2ccc(OC)c(OC)c2)OCC(C)(C)CO1
TGI (786-0 renal): 37.9 µM
TGI (A549 NSCLC): > 100 µM
TGI (ACHN renal): 37.9 µM
TGI (BT-549 breast): 31.1 µM
TGI (CAKI-1 renal): 52.9 µM
TGI (CCRF-CEM leukemia): > 100 µM
TGI (COLO 205 colon): 43.4 µM
TGI (DU-145 prostate): 33.1 µM
TGI (EKVX NSCLC): 40.1 µM
TGI (HCC-2998 colon): 46.2 µM
TGI (HCT-116 colon): 71.9 µM
TGI (HCT-15 colon): 38.6 µM
TGI (HL-60(TB) leukemia): 34.1 µM
TGI (HOP-62 NSCLC): 60.7 µM
TGI (HOP-92 NSCLC): 54.8 µM
TGI (HS 578T breast): 79.4 µM
TGI (HT29 colon): 97.8 µM
TGI (K-562 leukemia): > 100 µM
TGI (KM12 colon): 47.2 µM
TGI (LOX IMVI melanoma): 55.8 µM
TGI (M14 melanoma): 39.6 µM
TGI (MALME-3M melanoma): 45.5 µM
TGI (MCF7 breast): > 100 µM
TGI (MDA-MB-231 breast): 75.8 µM
TGI (MDA-MB-435): 56.3 µM
TGI (MDA-N): 55.5 µM
TGI (MOLT-4 leukemia): 6.05 µM
TGI (NCI-H226 lung): 56 µM
TGI (NCI-H23 lung): 37 µM
TGI (NCI-H460 lung): 55 µM
TGI (NCI-H522 lung): 37.8 µM
TGI (NCI/ADR-RES ovarian): 35.5 µM
TGI (OVCAR-3 ovarian): 39.8 µM
TGI (OVCAR-4 ovarian): 31.5 µM
TGI (OVCAR-5 ovarian): 35.2 µM
TGI (OVCAR-8 ovarian): 36.9 µM
TGI (PC-3 prostate): 57 µM
TGI (RXF 393 renal): 36.3 µM
TGI (SF-268 CNS): 39.1 µM
TGI (SF-295 CNS): 53.1 µM
TGI (SK-MEL-2 melanoma): 37.7 µM
TGI (SK-MEL-28 melanoma): 50.3 µM
TGI (SK-MEL-5 melanoma): 87.2 µM
TGI (SK-OV-3 ovarian): 60.4 µM
TGI (SN12C renal): 47.6 µM
TGI (SNB-19 CNS): 35.7 µM
TGI (SR leukemia): 29.4 µM
TGI (SW-620 colon): > 100 µM
TGI (T-47D breast): 33.2 µM
TGI (TK-10 renal): 34.6 µM
TGI (U251 CNS): > 100 µM
TGI (UACC-257 melanoma): 26.8 µM
TGI (UACC-62 melanoma): 29.4 µM
TGI (UO-31 renal): 31.6 µM
